# According to patent US9844563B2, “Compositions, kits, and methods to induce acquired cytoresistance using stress protein inducers” (FRED HUTCHINSON CANCER RESEARCH CENTER, priority 2014, dated 2017):
# Where “and” joins values, the source holds several entries; their conditions need not be identical. Equal entries are not always repeated.
# Legend:
# [1] = Berglund et al.; Kappas et al.; Reddy et al.; cited from earlier work
# [2] = system: Mgb-exposed cultured proximal tubule (HK-2) cells; settings: Zager & Burkhart, Kidney Int 1997; cited from earlier work
# IL-10 [3] = assay: Liver IL-10 mRNA and protein after N-Mgb, SnPP or both; format: in vivo, mice; settings: 18 h after Rx treatment
# Protocol: (§1) Thirty-two mice were divided into 4 equal groups: (1) control mice; (2) mice treated with 1 mg of N-Mgb injection (as a bolus through the tail vein); (3) mice treated with […] of SnPP (via tail vein); and (4) mice treated with combined N-Mgb 1 SnPP. After either 4 hours (n=16) or 18 hours (n=16), the mice were deeply anesthetized with pentobarbital (50 mg/kg), the abdomen was opened through a midline abdominal incision, and the kidneys were removed. To determine potential effects on extrarenal organs, a liver lobe and the heart were also removed. The tissues were iced and then extracted for protein and RNA (RNeasy Plus Mini; Qiagen, Valencia, Calif.) and subjected to enzyme linked immunosorbent assay (ELISA) and reverse transcriptase polymerase chain reaction (RT-PCR) for HO-1, haptoglobin, and IL-10 protein and messenger RNAs (mRNAs). Zager et al. J Am Soc Nephrol 2014;25:998-1012; Zager et al. Am J Physiol 2012;303:F139-48. As an assessment of renal function, control mice and the 18 hour after N-Mgb+SnPP—treated mice had blood urea nitrogen (BUN) and plasma creatinine levels measured. Additionally, transverse 10% formalin fixed kidney sections ([…]) were cut and stained with hematoxylin and eosin (H&E) and periodic acid Schiff (PAS) to further assess potential injury.
# Haptoglobin = assay: Renal cortical haptoglobin mRNA and protein after N-Mgb, SnPP or both; format: in vivo, mice; settings: renal cortex, 4 h after Rx treatment
# Protocol: as §1
# [4] = Agarwal et al., Kidney Int. 1995; cited from earlier work
# IL-10 [5] = assay: Renal cortical IL-10 mRNA and protein after N-Mgb, SnPP or both; format: in vivo, mice
# Protocol: as §1
# HO-1 = assay: Renal cortical HO-1 protein (ELISA) after IV myoglobin, SnPP or both; format: in vivo, mice; settings: Cortex, 4 hr IV, 1 mg Myoglobin, 1 μmole SnPP
# From the text: The Glycerol Model of AKI. This is a widely used model of rhabdomyolysis-induced AKI that has been employed worldwide for 50 years. The model was used to test whether prophylactic interventions confer protection against AKI. Basically, the protocol is as follows: Male CD-1 mice (35-45 grams), obtained from Charles River Laboratories, Wilmington, Mass. were studied. Mice were maintained under standard vivarium conditions and generally housed for 1-3 weeks prior to study. The mice were placed in a cylindrical restraining cage, and then were given a tail vein injection of the test substances (see below) or test substance vehicle. The mice were then returned to their cages. Eighteen hours (hrs) later, the mice were briefly anesthetized by isoflurane inhalation, and given an intramuscular injection of hypertonic (50%) glycerol in a dose of 9 ml/Kg body weight. The dose is divided in two, with half injected into the muscle of each of the hind limbs. The mice were then returned to their cages. Eighteen hrs later, the mice were deeply anesthetized with pentobarbital (50-100 mg/Kg), the abdominal cavity was opened through a midline abdominal incision, a blood sample was obtained from the abdominal vena cava and the kidneys were resected. A kidney cross section was obtained and fixed in formalin for subsequent histologic analysis. The terminal blood samples were analyzed for BUN and creatinine, using commercially available assay kits. The remaining kidney tissue was subjected to cortical dissection, and the cortical tissues were then extracted for protein and RNA. The protein samples were saved for analysis of HO-1 levels, and the RNA samples were subjected to RT-PCR to quantify HO-1 mRNA as well as levels of other stress gene mRNAs (e.g. NGAL, haptoglobin, hemopexin, hepicidin).
# Myoglobin+SnPP: To 5 mg of dry myoglobin was added 0.9 ml of PBS+0.1 ml of a stock SnPP solution (50 umole/ml). The resulting final concentrations were 5 mg/ml myoglobin+5 umoles/ml of SnPP. The tail vein was injected with 200 ul of this solution, which equals 1 mg myoglobin+1 umole SnPP. […]
# Four hr post myoglobin vs myoglobin+SnPP vs SnPP alone experiments. To confirm that the myoglobin+SnPP has a synergistic effect in inducing HO-1 mRNA and HO-1 protein levels, each of the above combinations have been administered alone via tail vein injection. […] For additional information regarding methods, see Zager et al., Am J Physiol Renal Physiol. 2014 Jul. 30. Pii.
# [6] = Nath et al., J. Clin. Invest. 1992; cited from earlier work
compound,measurement,setting,value
"C=Cc1c2[n-]c(c1C)/C=c1\[n-]/c(c(C)c1C=C)=C\c1[n-]c(c(CCC(=O)O)c1C)C=c1[n-]/c(c(C)c1CCC(=O)O)=C\2.[Sn+4] [SnPP, Sn-protoporphyrin, reference compound]",tolerability in humans,[1],well tolerated in humans
same,reduction of Mgb toxicity by SnPP addition,[2],≤ 85%
same,Liver mRNA IL-10,IL-10 [3],0.05 ± 0.01
same,Kidney Haptoglobin (protein),Haptoglobin,13.1 ± 1.3
same,effect of pretreatment on renal injury,[4],exacerbated renal injury
same,increase in renal IL-10 mRNA,IL-10 [5]; 4 hours after injection,either minimal or no impact
same,increase in renal IL-10 protein,IL-10 [5]; 18 hours after injection,absence of IL-10 protein increases
same,Kidney IL-10 (protein),"IL-10 [5]; renal cortex, 4 h after Rx treatment",550 ± 86
same,"HO-1 Protein Expression (by ELISA), Average",HO-1; average,34.4 ng HO-1/mg protein
same,"HO-1 Protein Expression (by ELISA), individual mice",HO-1; single animals,32.2 ng HO-1/mg protein and 31.5 ng HO-1/mg protein and 20.5 ng HO-1/mg protein and 53.6 ng HO-1/mg protein
same,effect on kidney dysfunction,[6],exacerbated kidney dysfunction
